{"source": "patent US20220127570A1", "about": "“IMMUNE EFFECTOR CELL AND USE THEREOF” (CAFA THERAPEUTICS LIMITED, priority 2018, published 2022)", "key": {"[1]": {"test_system": "PLC/PRF/5 subcutaneous xenograft", "assay": "PLC/PRF/5 subcutaneous xenograft model, CAR T in combination with sorafenib", "assay_type": "in vivo, NPG mice", "experimental": "2) Inoculation of subcutaneous xenograft: PLC/PRF/5 cells in the logarithmic growth phase and in good growth condition were collected by Trypsin digestion and washed once with normal saline. The cell density was adjusted to 1.5×10^7/mL and 200 μL of cell suspension was injected into the subcutaneous part of the right abdomen of NPG mice using a syringe, that is, each mouse was inoculated with 3×10^6 tumor cells, and the inoculation day was the 0th day.\n3) Injection of CAR T: On D14 days after subcutaneous inoculation of tumor cells, the average tumor volume was about 260 mm^3. CAR T cells were injected, and the injection dose: 2.0×10^6/animal. On D1-D14 days after subcutaneous inoculation of tumor cells, sorafenib was administered by gavage at a dose of 75 mg/kg, and the gavage volume was 200 ul, once a day, for 14 consecutive days, and the solvent was used as a negative control."}, "[2]": {"details": "cited from earlier work"}}}
{"smiles": "CNC(=O)c1cc(Oc2ccc(NC(=O)Nc3ccc(Cl)c(C(F)(F)F)c3)cc2)ccn1", "note": "[Sorafenib]", "values": [{"measurement": "tumor inhibiting rate", "setting": "[1]; D18 after injection of CAR T, compared with UTD control group, CAR T 2.0×10^6/animal, sorafenib 75 mg/kg gavage once a day for 14 days", "result": 27.38, "unit": "%"}, {"measurement": "body weight of mice compared with UTD", "setting": "[1]; at the beginning of the treatment", "result": "decreased"}, {"measurement": "body weight of mice", "setting": "[1]; at the end of the treatment", "result": "restored"}, {"measurement": "solubility in polyvinylglycerol 400 (PEG400)", "setting": "[2]; PEG400", "result": "soluble"}, {"measurement": "solubility in ethanol", "setting": "[2]; ethanol", "result": "slightly soluble"}, {"measurement": "solubility in water", "setting": "[2]; water", "result": "poorly soluble"}]}
